Test results taken from patent US20150018411A1, “COMPOUNDS AS PPAR BETA/DELTA INHIBITORS FOR TREATING PPAR BETA/DELTA-MEDIATED DISEASES” (PHILIPPS-UNIVERSITAT MARBURG, priority 2011, published 2015).

Tests used:
[1] = molecular target: T1, GST-PPAR beta/delta LBD (Homo sapiens, UniProt Q03181); assay: Inhibition of agonist L165041-induced recruitment of co-activator peptide C33, TR-FRET; format: biochemical; conditions: 1 μM test substance, increasing concentrations of agonist L165041
T1 construct: GST-PPAR beta/delta LBD (GST=glutathione S-transferase); purchased Invitrogen, Darmstadt, Germany
T1 sequence (Q03181 211-439 limits assumed): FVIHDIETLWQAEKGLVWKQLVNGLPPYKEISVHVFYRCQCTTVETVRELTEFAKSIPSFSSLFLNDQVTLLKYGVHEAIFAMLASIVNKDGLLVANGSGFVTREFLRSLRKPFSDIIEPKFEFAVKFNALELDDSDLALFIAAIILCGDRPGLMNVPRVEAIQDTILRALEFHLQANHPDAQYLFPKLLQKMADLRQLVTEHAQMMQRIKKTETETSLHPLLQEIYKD
Experimental: (§1) FIG. 3: Inhibition of agonist-induced co-activator peptide binding (A) and inverse agonist compound 1-induced corepressor peptide binding (B) by the substance of this invention compound 5. • The recruitment of the co-activator or corepressor peptide, respectively, is determined in a TR-FRET assay. As co-activator peptide, C33 is utilized, as corepressor peptide SMRT-ID2. The experiment is performed with a constant concentration of 1 μM of the substance of this invention compound 5 and increasing concentrations of the agonist L165041 (A) or the inverse agonist compound 1 (B), respectively.
(§2) C) The inhibition of the recruitment of co-activator peptide C33 known to the expert in this field mediated by PPAR beta/delta agonist L165,041 or the inhibition of the inverse agonist inventive compound 1-mediated binding of the corepressor peptide SMRT-ID2 to GST-PPAR beta/delta LBD by the substance of this invention compound 5 (1 μM) was also determined by TR-FRET measurements. Both is shown in FIGS. 3 A and B in dependency of the concentration of the agonist (A) and the inverse agonist (B), respectively.

[2] = molecular target: T1, GST-PPAR beta/delta LBD; assay: Inhibition of compound 1-induced binding of corepressor peptide SMRT-ID2, TR-FRET; format: biochemical; conditions: 1 μM test substance, increasing concentrations of inverse agonist compound 1
Experimental: as §1, §2

inhibition of agonist-induced recruitment of co-activator peptide C33 [1]: prevents | inhibition of compound 1-mediated interaction of LBD with corepressor peptide SMRT-ID2 [2]: prevents
Structure (SMILES): COC(=O)c1sccc1S(=O)(=O)Nc1ccc(NC(C)(C)C)cc1OC [compound 5, methyl 3-(N-(4-(tert-butylamino)-2-methoxyphenyl)sulfamoyl)thiophene-2-carboxylate]
